Measurements reported in patent US10401361B2, “Intracellular organelle peptide targeted enzyme substrates” (Marker Gene Technologies, Inc., priority 2009, dated 2019).

Tested on: mannosidase
Test: Staining with targeted mannosidase substrates after incubation with mannosidase inhibitor
Assay type: cell-based, human
Settings: 100 uM inhibitor, 1 day (Golgi) or 5 days (ER); substrate 20 uM, 4 hours; AG06173, FIG. 2
Description: Normal, healthy human lung fibroblasts (Cell line AG06173, Coriell Institute for Medical Research, Camden, N.J.) were prepared according to example 17 and plated in an optical bottom 96 well plate at 1×10^4 cells/mL.
Cells were then incubated at 37° C. and 5% CO2 in complete EMEM and incubated for 1 (Golgi) or 5 days (ER) at 37° C., 5% CO2 with or without the mannosidase inhibitor swainsonine at 100 uM. The appropriate targeted substrate for staining either the ER or Golgi was then applied at a final concentration of 20 uM and incubated for 4 hours at 37° C., 5% CO2.
Following incubation the cells were washed in PBS and bathed in Opti-Klear™ Imaging Buffer (Marker Gene Technologies, Inc Eugene Oreg.) with or without nuclear stain Hoechst 33342. Cells were then imaged on an EVOS Auto-FL fluorescence microscope (Life Technologies) fitted with a TexasRed™ light cube.

## O[C@H]1[C@H]2[C@H](O)CCCN2C[C@H]1O [swainsonine]
  effect on mannosidase activity seen by targeted substrate staining: reduction in enzyme activity
